Converted amounts (≈) assume the structure as drawn. Marks after values point to notes of the source that are not given here. Positions of bridges follow the written chain, without caps; N, C: chain ends. Residues, ends and D or L forms follow the SMILES beside them. Chains are numbered I, II in the order given. *: point of attachment. Palmitoyl = CCCCCCCCCCCCCCCC(=O)*; Decanoyl = CCCCCCCCCC(=O)*
Legend:
Pseudomonas aeruginosa = format: cell-based
Method: (§1) V2-dimer and all lipopeptides (FIG. 1A) used in this study were purchased from Mimotopes. All peptides were prepared by dissolving in sterile water to make 1000 μg/mL stock solutions. Minimum Inhibitory Concentration (MIC) determination was carried out in Mueller Hinton Broth (MHB) using the broth macro-dilution method as described by the Clinical and Laboratory Standards Institute (CLSI). Then, cation-adjusted MHB (CA-MHB) was used to prepare serial two fold dilutions of the compounds in test tubes. The concentration of the inoculums suspension was also adjusted to approximately 5×10^5 Colony Forming Units (CFU)/mL using MHB. Bacteria were incubated with the compounds for 24 hours at 35° C. prior to reading. In this study, Gram-positive strains used were Staphylococcus aureus DM4001 and Methicillin-resistant Staphylococcus aureus (MRSA) DM9808. Gram-negative strains used were Klebsiella pneumoniae DM4299, Pseudomonas aeruginosa ATCC23155 and Escherichia coli ATCC27922.
(§2) Methods used are as described in Example 1 above.

Staphylococcus aureus = format: cell-based
Method: as §1, §2

[1] = system: Methicillin-resistant Staphylococcus aureus (MRSA); format: cell-based
Method: as §1, §2

[2] = system: Klebsiella pneumoniae DM4299; format: cell-based
Method: as §1

[3] = system: Escherichia coli ATCC27922; format: cell-based
Method: as §1

in vitro = format: cell-based, rabbit; conditions: New Zealand white, rabbit, pH 7
Method: (§3) Fresh red blood cells (RBCs) of New Zealand white rabbits were used for this experiment. The RBCs obtained were centrifuged at 3000 rpm for 10 min. Supernatant was removed and washed twice with sterile PBS Buffer (20 mM, 100 mM NaCl, pH 7). The RBCs were further diluted to 8% stock solution in PBS. Peptides were dissolved in PBS with desired stock concentrations. When compounds were mixed with RBCs, desired concentration of 4% RBCs was obtained. For C14V2D and C16V2D, they were dissolved in Dimethylformamide ([…]; DMF) with desired stock concentrations. When compounds were mixed with RBCs, desired concentration of 4% RBCs and 0.5% DMF was obtained. DMF concentration of <1% was used as it had negligible hemolytic activity on RBCs. The mixtures were added to 1.5 mL centrifuge tubes and incubated at 37° C. for 1 h. After incubation, the blood was centrifuged at 3000 rpm for 3 min at 4° C. 100 μL of the supernatant was transferred into transparent 96-well plate. The absorbance was measured at 576 nm using a microplate reader (TECAN Infinite 200M Pro). 2% Triton X-100 was used as positive control. PBS was used as negative controls. The amount of hemoglobin released was calculated using the following equation: […]

[4] = system: red blood cells (RBCs) of New Zealand white rabbits; test: in vitro; format: cell-based, rabbit
Method: as §3

S. aureus (DM4001) = test: Membrane damage, LIVE/DEAD BacLight assay; format: cell-based, Staphylococcus aureus; conditions: FIG. 7
Method: The extent of bacterial membrane damage was assessed using LIVE/DEAD BacLight Bacterial Viability Kit (Molecular Probes, Invitrogen) which utilises both SYTO 9 green-fluorescent nucleic acid stain and the red-fluorescent nucleic acid stain, propidium iodide in their different ability to penetrate healthy bacterial cells. SYTO9 dye could penetrate bacteria with intact and damaged membrane but propidium iodide could only penetrate bacteria with damaged bacteria thereby causing a reduction in the SYTO 9 stain's fluorescence when both dyes are present. Thus, bacteria with intact cell membranes stain fluorescent green whereas bacteria with damaged membranes stain fluorescent red. Briefly, clinical isolate S. aureus (DM4001) was collected at an early exponential growth phase and washed twice with 0.9% saline solution (live culture). A portion of the culture was resuspended in 70% 2-propanol to prepare dead culture with fully permeabilised membrane. […] Using TECAN infinite 200 microplate reader, the wavelength for excitation was fixed at 485 nm to obtain the emission spectrum from 500 nm to 700 nm. The green to red ratio (G/R) was determined using the following formula: [formula] % of membrane damage was quantified using a G/R ratio standard curve generated using bacterial mixture of 0, 10%, 50%, 90% and 100% live culture suspension. […]

[5] = Dissolution in PBS for hemolytic assay; format: physicochemical
Method: as §3

P. aeruginosa [6] = test: Bacterial viability assay (ED50); format: cell-based, Pseudomonas aeruginosa; conditions: P. aeruginosa ATCC 9027 and ATCC 27853; FIG. 12
Method: Cell viability was conducted for two Gram-negative bacteria (Pa 9027 and Pa 27853). The cultures were grown overnight in TS agar and a few isolated colonies were inoculated to achieve a turbidity equivalent to 0.5 McFarland standard. The cell concentration was adjusted to […] with 10 mM phosphate buffer and separated into different tubes to get final concentration of 10^5 CFU/ml. The peptides were added to the individual tubes to obtain concentrations of ⅛ MIC, ¼ MIC, ½ MIC, 1 MIC, 2 MIC and 4 MIC. The tubes were incubated at 37° C. for 22 h. Serial dilution was performed and 100 uL of the suspension was aliquot into MHA plate. The plates were incubated for 24 h at 37° C. for colony counting. Positive control was performed at 0 h and 22 h.

P. aeruginosa ATCC 9027 = test: Outer membrane (OM) permeability assay (NPN); format: cell-based, Pseudomonas aeruginosa; conditions: FIG. 14
Method: To probe the OM permeability of peptides, a membrane impermeable probe N-phenyl-1-naphthyl amine (NPN) was used in the present study. The overnight cultured P. aeruginosa ATCC 9027 cells were harvested by centrifugation at 3000 rpm, 4° C. The resulting pellet was washed twice and resuspended in 5 mM HEPES buffer (pH 7.2) to OD600 of 0.4. The cells were placed in a 10 mm stirred cuvette and NPN was added to a final concentration of 10 μM. Appropriate concentrations of B2088 was added and the increase in fluorescence intensity was monitored on a Quanta Master fluorescence spectrophotometer (Photon Technology International, New Jersey, USA). The excitation and emission wavelengths were set at 350 and 410 nm with slid widths at 2 and 5 nm, respectively. The % NPN uptake was calculated relative to increase in NPN fluorescence intensity after the addition of 50 μM polymyxin B.

Klebsiella pneumoniae = format: cell-based; conditions: 24 h
Method: The minimum inhibitory concentration (MIC) was determined using the broth microdilution method. Bacterial cells (shown in Table 6) are grown in Mueller Hinton Broth (MHB) overnight. 100 μL of adjusted inoculum in MHB is added to 100 μL of each dilution of peptide or antibiotics dissolved in the broth, so as to yield a final cell density of 10^5 to 10^6 cfu/mL in each well. The plates were incubated at 35° C. for 24 h and the absorbance at 600 nm (OD600) was monitored every 30 minutes. A positive control well contained the broth and organisms (no peptides/antibiotics), and a negative control tube contains only the broth. The MIC of peptides for each clinical isolate or reference organism was recorded as the lowest concentration of peptide/antibiotic that inhibited visible growth of the test organism. To study the effect of Mg2+ on MIC of branched peptides, the concentration of MgCl2 was varied in MHB and the MIC was determined as before.

P. aeruginosa [7] = test: Time-kill kinetics assay; format: cell-based, Pseudomonas aeruginosa; conditions: both Pseudomonas strains at 1× and 2×MIC; compared with B2088; FIG. 13
Method: The kinetics of bactericidal action was performed by the assay reported before. Briefly, few colonies of overnight grown P. aeruginosa strains were collected from tryptic soy agar plate and suspended US pharmacopeia phosphate buffer (pH 7.2). The suspension was adjusted to an initial inoculum of 10^6 CFU/mL and incubated with various concentrations of B2088 and B2088—99 at 35° C. 0.1 mL aliquots were withdrawn at various time intervals, diluted […] fold using the same buffer, plated on tryptic soy agar plates and incubated at 35° C. The colonies were counted after 24 h incubation and expressed as CFU/mL. Buffer without peptides served as a positive control and % bacterial viability is estimated using the following equation:
Bacterial viability=1−(CFU/mL)peptide/(CFU/mL)control*100

## CCCCCCCCCC(=O)N[C@@H](CCCNC(=N)N)C(=O)NCC(=O)N[C@@H](CCCNC(=N)N)C(=O)N[C@@H](CCCCN)C(=O)N[C@H](C(=O)N[C@H](C(=O)N[C@@H](CCCNC(=N)N)C(=O)N[C@@H](CCCNC(=N)N)C(=O)NCCCC[C@H](NC(=O)[C@H](CCCNC(=N)N)NC(=O)[C@H](CCCNC(=N)N)NC(=O)[C@@H](NC(=O)[C@@H](NC(=O)[C@H](CCCCN)NC(=O)[C@H](CCCNC(=N)N)NC(=O)CNC(=O)[C@H](CCCNC(=N)N)NC(=O)CCCCCCCCC)C(C)C)C(C)C)C(=O)N[C@@H](CCCCN)C(=O)O)C(C)C)C(C)C [Peptide C10-V2D, (C9H19—CO—NH—RGRKVVRR)2KK] (I: Decanoyl-RGRKVVRRKK-OH / II: Decanoyl-RGRKVVRR; amide I:9-II:C)
Pseudomonas aeruginosa
  MIC: 2.40 µM (≈ 6.24 µg/mL)
Staphylococcus aureus
  MIC: 2.40 µM (≈ 6.24 µg/mL)
[1]
  MIC: 1.20 µM (≈ 3.12 µg/mL)
[2]
  MIC: 2.40 µM (≈ 6.24 µg/mL)
[3]
  MIC: 4.80 µM (≈ 12.5 µg/mL)
In vitro
  hemolysis at 1 h, 20 mg/mL: 3.3%
[4]
  HC10: >2000^a ug/mL

## CCCCCCCCCCCCCCCC(=O)N[C@@H](CCCNC(=N)N)C(=O)NCC(=O)N[C@@H](CCCNC(=N)N)C(=O)N[C@@H](CCCCN)C(=O)N[C@H](C(=O)N[C@H](C(=O)NCCCC[C@H](NC(=O)[C@@H](NC(=O)[C@@H](NC(=O)[C@H](CCCCN)NC(=O)[C@H](CCCNC(=N)N)NC(=O)CNC(=O)[C@H](CCCNC(=N)N)NC(=O)CCCCCCCCCCCCCCC)C(C)C)C(C)C)C(=O)N[C@@H](CCCCN)C(=O)O)C(C)C)C(C)C [Peptide C16-V2D, (C15H31—CO—NH—RGRKVV)2KK] (I: Palmitoyl-RGRKVVKK-OH / II: Palmitoyl-RGRKVV; amide I:7-II:C; C-terminus assumed)
Pseudomonas aeruginosa
  MIC: >36.13 µM
Staphylococcus aureus
  MIC: 36.13 µM (≈ 77.4 µg/mL)
[1]
  MIC: 18.07 µM (≈ 38.7 µg/mL)
S. aureus (DM4001)
  membrane integrity: reduced membrane integrity
[2]
  MIC: >36.13 µM
[3]
  MIC: 9.03 µM (≈ 19.4 µg/mL)
[5]
  dissolution in PBS: ^cValue in DMF. C16V2D could not dissolve in PBS.
[4]
  HC10: ^c114.0 ± 37.9 ug/mL

## N=C(N)NCCC[C@H](NC(=O)CNC(=O)CNC(=O)[C@H](CCCCN)NC(=O)[C@H](CCCNC(=N)N)NC(=O)CNC(=O)[C@@H](N)CCCNC(=N)N)C(=O)N[C@@H](CCCNC(=N)N)C(=O)NCCCC[C@H](NC(=O)[C@H](CCCNC(=N)N)NC(=O)[C@H](CCCNC(=N)N)NC(=O)CNC(=O)CNC(=O)[C@H](CCCCN)NC(=O)[C@H](CCCNC(=N)N)NC(=O)CNC(=O)[C@@H](N)CCCNC(=N)N)C(=O)N[C@@H](CCCCN)C(=O)O [Peptide G2D, (RGRKGGRR)2KK] (I: H-RGRKGGRRKK-OH / II: H-RGRKGGRR; amide I:9-II:C; N-terminus and C-terminus assumed)
Pseudomonas aeruginosa
  MIC: 2.94 µM (≈ 6.24 µg/mL)
Staphylococcus aureus
  MIC: 5.66 µM (≈ 12 µg/mL)
[1]
  MIC: 5.89 µM (≈ 12.5 µg/mL)
P. aeruginosa [6]
  ED50 compared with B2088: two times lower
P. aeruginosa ATCC 9027
  PC50 (concentration for 50% increase in NPN fluorescence intensity) compared with B2088: higher
Klebsiella pneumoniae
  MIC: 2.9 µM (≈ 6.16 µg/mL)
[2]
  MIC: 2.94 µM (≈ 6.24 µg/mL)
P. aeruginosa [7]
  kill kinetics: faster kill kinetics
